Tests used:
[1] = Net charge of peptide at neutral pH; assay type: physicochemical; conditions: owing to 2 Arginine residues
[2] = tested on: EAE; assay: EAE murine model, intravenous versus subcutaneous administration of remote loaded nanoparticles (Example VIII); assay type: in vivo, C57BL/6J mice; conditions: 100 ug subcutaneous by the tail base; after 60 days
[3] = tested on: EAE; assay: EAE murine model, effects of remote loaded nanoparticles on Treg response, EAE scores (Example IX); assay type: in vivo, C57BL/6J mice; conditions: 10 ug subcutaneous by the tail base
Protocol: EAE was induced in a murine model as described in Example VIII. There were 3 treatment groups and one group that only received phosphate-buffered saline (PBS). For the treatment groups, 10 ug of self-antigen in 1 mL PBS was aliquoted from the MOG 38-50 loaded PLGA nanoparticles batch based on loading % determined by UPLC. The first treatment group received remote loaded nanoparticles injected subcutaneously by the tail base. The second treatment group received remote loaded nanoparticles injected intravenously in the tail. The third treatment group received 10 ug of free MOG 38-50 peptide injected subcutaneously by the tail base. EAE was assessed daily using the 0 to 5 clinical score scale described in Example VII.

[4] = previous studies; cited from earlier work

| Molecule | charge [1] | EAE clinical score [2] | EAE score ([3]; after day 8) | EAE score ([3]; day 8) | charge at neutral pH [4] |
| --- | --- | --- | --- | --- | --- |
| MOG 38-50 (GWYRSPFSRVVHL) [free MOG 38-50 peptide] | > +1 | 3.5 | ~3.0 | ~2.5 |  |
| C[C@@H](O)[C@@H]1NC(=O)[C@H](CCCCN)NC(=O)[C@@H](Cc2c[nH]c3ccccc23)NC(=O)[C@H](Cc2ccccc2)NC(=O)[C@@H](NC(=O)[C@H](N)Cc2ccccc2)CSSC[C@@H](C(=O)N[C@H](CO)[C@@H](C)O)NC1=O [octreotide] |  |  |  |  | ~+1.7 |
| CCNC(=O)[C@@H]1CCCN1C(=O)[C@H](CCCNC(=N)N)NC(=O)[C@H](CC(C)C)NC(=O)[C@@H](CC(C)C)NC(=O)[C@H](Cc1ccc(O)cc1)NC(=O)[C@H](CO)NC(=O)[C@H](Cc1c[nH]c2ccccc12)NC(=O)[C@H](Cc1c[nH]cn1)NC(=O)[C@@H]1CCC(=O)N1 [leuprolide] |  |  |  |  | ~+1 |
